From ChEMBL document CHEMBL3045021, “Synthesis, antibacterial, and antifungal activities of biolabile (E)-1-(4-morpholinophenyl)-3-aryl-prop-2-en-1-ones” (2009) come the findings set out here.

The subject of experiment [1] is Aspergillus flavus. Kind of experiment: Antimicrobial activity against Aspergillus flavus at 100 U/disk after 72 to 96 hr by disk diffusion method. Format: functional.
In experiment [2] the test system is Nannizzia gypsea. Kind of experiment: Antimicrobial activity against Microsporum gypseum at 100 U/disk after 72 to 96 hr by disk diffusion method. Format: functional. A general note: A growth-free zone around the sample is the usual read-out of agar diffusion tests.
In experiment [3] the test system is Rhizopus. Kind of experiment: Antimicrobial activity against Rhizopus at 100 U/disk after 72 to 96 hr by disk diffusion method. In kind it is functional.
In experiment [4] the test system is Mucor. Description: Antimicrobial activity against Mucor at 100 U/disk after 72 to 96 hr by disk diffusion method. In kind it is functional.
Experiment [5] concerns Salmonella typhi. Description: Antimicrobial activity against Salmonella enterica subsp. enterica serovar Typhi at 5 ug/disk after 24 hr by disk diffusion method. In kind it is functional. Particulars: read-out: IZ.
The test system of experiment [6] is Vibrio cholerae. Kind of experiment: Antimicrobial activity against Vibrio cholerae at 5 ug/disc after 24 hr by disk diffusion method. In kind it is functional. As to conditions: read-out: IZ.
The test system of experiment [7] is Streptococcus. Kind of experiment: Antimicrobial activity against beta-hemolytic Streptococcus at 5 ug/disk after 24 hr by disk diffusion method. In kind it is functional. Particulars: read-out: IZ.
In experiment [8] the test system is Staphylococcus aureus. Kind of experiment: Antimicrobial activity against Staphylococcus aureus at 5 ug/disc after 24 hr by disk diffusion method. As to conditions: read-out: IZ.
The test system of experiment [9] is Shigella flexneri. Description: Antimicrobial activity against Shigella flexneri at 5 ug/disc after 24 hr by disk diffusion method. In kind it is functional. Particulars: read-out: IZ.
Experiment [10] has as its system Pseudomonas. Kind of experiment: Antimicrobial activity against Pseudomonas at 5 ug/disk after 24 hr by disk diffusion method. As to conditions: read-out: IZ. In kind it is functional.
Experiment [11] deals with Klebsiella pneumoniae. Kind of experiment: Antimicrobial activity against Klebsiella pneumoniae at 5 ug/disk after 24 hr by disk diffusion method. As to conditions: read-out: IZ.
In experiment [12] the test system is Aspergillus flavus. Description: Antimicrobial activity against Aspergillus flavus at 200 ppm after 72 to 96 hr by disk diffusion method. In kind it is functional. As to conditions: read-out: IZ.
Experiment [13] relates to Escherichia coli. Kind of experiment: Antimicrobial activity against Escherichia coli at 500 ppm after 24 hr by disk diffusion method. As to conditions: read-out: IZ. In kind it is functional.
In experiment [14] the test system is Klebsiella pneumoniae. Description: Antimicrobial activity against Klebsiella pneumoniae at 500 ppm after 24 hr by disk diffusion method. As to conditions: read-out: IZ. Format: functional.
The subject of experiment [15] is Aspergillus flavus. Description: Antimicrobial activity against Aspergillus flavus at 100 ppm after 72 to 96 hr by disk diffusion method. In kind it is functional. As to conditions: read-out: IZ.
Experiment [16] relates to Nannizzia gypsea. Kind of experiment: Antimicrobial activity against Microsporum gypseum at 200 ppm after 72 to 96 hr by disk diffusion method. Particulars: read-out: IZ. Format: functional.
Experiment [17] relates to Rhizopus. Description: Antimicrobial activity against Rhizopus at 500 ppm after 72 to 96 hr by disk diffusion method. In kind it is functional. Particulars: read-out: IZ.
Experiment [18] concerns Klebsiella pneumoniae. Description: Antimicrobial activity against Klebsiella pneumoniae at 100 ppm after 24 hr by disk diffusion method. In kind it is functional.
Experiment [19] deals with Vibrio cholerae. Kind of experiment: Antimicrobial activity against Vibrio cholerae at 500 ppm after 24 hr by disk diffusion method. In kind it is functional. Particulars: read-out: IZ.
For experiment [20], the system named is Vibrio cholerae. Kind of experiment: Antimicrobial activity against Vibrio cholerae at 200 ppm after 24 hr by disk diffusion method. In kind it is functional. As to conditions: read-out: IZ.
Experiment [21] deals with Salmonella typhi. Description: Antimicrobial activity against Salmonella enterica subsp. enterica serovar Typhi at 200 ppm after 24 hr by disk diffusion method. In kind it is functional. As to conditions: read-out: IZ.
Experiment [22] concerns Staphylococcus aureus. Description: Antimicrobial activity against Staphylococcus aureus at 100 ppm after 24 hr by disk diffusion method. Format: functional.
For experiment [23], the system named is Shigella flexneri. Kind of experiment: Antimicrobial activity against Shigella flexneri at 500 ppm after 24 hr by disk diffusion method. In kind it is functional. Particulars: read-out: IZ.
For experiment [24], the system named is Streptococcus. Kind of experiment: Antimicrobial activity against beta-hemolytic Streptococcus at 200 ppm after 24 hr by disk diffusion method. Format: functional. As to conditions: read-out: IZ.
Experiment [25] relates to Mucor. Description: Antimicrobial activity against Mucor at 500 ppm after 72 to 96 hr by disk diffusion method. In kind it is functional. Particulars: read-out: IZ.
Experiment [26] relates to Vibrio cholerae. Description: Antimicrobial activity against Vibrio cholerae at 100 ppm after 24 hr by disk diffusion method. In kind it is functional.
In experiment [27] the test system is Rhizopus. Kind of experiment: Antimicrobial activity against Rhizopus at 100 ppm after 72 to 96 hr by disk diffusion method. In kind it is functional.
For experiment [28], the system named is Streptococcus. Description: Antimicrobial activity against beta-hemolytic Streptococcus at 500 ppm after 24 hr by disk diffusion method. In kind it is functional. Particulars: read-out: IZ.
The test system of experiment [29] is Escherichia coli. Kind of experiment: Antimicrobial activity against Escherichia coli at 200 ppm after 24 hr by disk diffusion method. In kind it is functional. As to conditions: read-out: IZ.
Experiment [30] has as its system Pseudomonas. Kind of experiment: Antimicrobial activity against Pseudomonas at 200 ppm after 24 hr by disk diffusion method. Format: functional. As to conditions: read-out: IZ.
Experiment [31] deals with Salmonella typhi. Description: Antimicrobial activity against Salmonella enterica subsp. enterica serovar Typhi at 100 ppm after 24 hr by disk diffusion method. In kind it is functional.
Experiment [32] concerns Nannizzia gypsea. Kind of experiment: Antimicrobial activity against Microsporum gypseum at 500 ppm after 72 to 96 hr by disk diffusion method. Format: functional. Particulars: read-out: IZ.
The test system of experiment [33] is Pseudomonas. Kind of experiment: Antimicrobial activity against Pseudomonas at 500 ppm after 24 hr by disk diffusion method. As to conditions: read-out: IZ. In kind it is functional.
Experiment [34] deals with Shigella flexneri. Kind of experiment: Antimicrobial activity against Shigella flexneri at 200 ppm after 24 hr by disk diffusion method. In kind it is functional. Particulars: read-out: IZ.
The test system of experiment [35] is Rhizopus. Kind of experiment: Antimicrobial activity against Rhizopus at 200 ppm after 72 to 96 hr by disk diffusion method. In kind it is functional. Particulars: read-out: IZ.
Experiment [36] has as its system Staphylococcus aureus. Description: Antimicrobial activity against Staphylococcus aureus at 200 ppm after 24 hr by disk diffusion method. Format: functional. Particulars: read-out: IZ.
Experiment [37] has as its system Pseudomonas. Kind of experiment: Antimicrobial activity against Pseudomonas at 100 ppm after 24 hr by disk diffusion method. Format: functional.
In experiment [38] the test system is Escherichia coli. Description: Antimicrobial activity against Escherichia coli at 100 ppm after 24 hr by disk diffusion method. Format: functional.
Experiment [39] relates to Staphylococcus aureus. Description: Antimicrobial activity against Staphylococcus aureus at 500 ppm after 24 hr by disk diffusion method. Format: functional. Particulars: read-out: IZ.
For experiment [40], the system named is Klebsiella pneumoniae. Kind of experiment: Antimicrobial activity against Klebsiella pneumoniae at 200 ppm after 24 hr by disk diffusion method. As to conditions: read-out: IZ. Format: functional.
The subject of experiment [41] is Shigella flexneri. Description: Antimicrobial activity against Shigella flexneri at 100 ppm after 24 hr by disk diffusion method. Format: functional.
Experiment [42] relates to Mucor. Kind of experiment: Antimicrobial activity against Mucor at 100 ppm after 72 to 96 hr by disk diffusion method. Format: functional.
Experiment [43] has as its system Nannizzia gypsea. Kind of experiment: Antimicrobial activity against Microsporum gypseum at 100 ppm after 72 to 96 hr by disk diffusion method. Format: functional.
The test system of experiment [44] is Salmonella typhi. Description: Antimicrobial activity against Salmonella enterica subsp. enterica serovar Typhi at 500 ppm after 24 hr by disk diffusion method. Format: functional. Particulars: read-out: IZ.
The subject of experiment [45] is Streptococcus. Description: Antimicrobial activity against beta-hemolytic Streptococcus at 100 ppm after 24 hr by disk diffusion method. Format: functional.
For experiment [46], the system named is Mucor. Description: Antimicrobial activity against Mucor at 200 ppm after 72 to 96 hr by disk diffusion method. Format: functional. Particulars: read-out: IZ.
Experiment [47] deals with Aspergillus flavus. Kind of experiment: Antimicrobial activity against Aspergillus flavus at 500 ppm after 72 to 96 hr by disk diffusion method. Format: functional. Particulars: read-out: IZ.

Structures are written as SMILES. Calls of active or inactive are those of the source. The rule behind the calls is not given here.

For `OC(Cn1cncn1)(Cn1cncn1)c1ccc(F)cc1F` [FLUCONAZOLE], the “inhibition zone (IZ)” value with Aspergillus flavus [1], in the experiment on Nannizzia gypsea [2], in the experiment on Rhizopus [3] and with Mucor [4] was 20 mm each time.

`O=C(O)c1cn(C2CC2)c2cc(N3CCNCC3)c(F)cc2c1=O` [CIPROFLOXACIN]: the zone of inhibition at 5 µg/disc with Salmonella typhi [5] came out at 22 mm; in the experiment on Vibrio cholerae [6], 23 mm; in the experiment on Streptococcus [7], 28 mm; in the experiment with Staphylococcus aureus [8], 25 mm; with Shigella flexneri [9] it was 23 mm; in the experiment with Pseudomonas [10] it was 23 mm. In the experiment on Klebsiella pneumoniae [11], the zone of inhibition at 5 µg/disc turned out to be 26 mm.

In the case of `O=C(/C=C/c1ccccc1)c1ccc(N2CCOCC2)cc1`, the zone of inhibition at 200 ppm came out at 17 mm in the experiment on Aspergillus flavus [12]; 12 mm in the experiment on Nannizzia gypsea [16]; 17 mm in the experiment on Vibrio cholerae [20]; 12 mm in the experiment on Salmonella typhi [21]; 17 mm with Streptococcus [24]; 17 mm in the experiment with Escherichia coli [29]. Further, the zone of inhibition at 200 ppm was 22 mm in the experiment on Pseudomonas [30]; 17 mm with Shigella flexneri [34]; 12 mm in the experiment on Rhizopus [35]; 17 mm with Staphylococcus aureus [36]; 12 mm with Klebsiella pneumoniae [40]; 12 mm in the experiment with Mucor [46]. Further, the zone of inhibition at 500 ppm is 17 mm with Escherichia coli [13]; 22 mm in the experiment on Klebsiella pneumoniae [14]; 17 mm in the experiment on Rhizopus [17]; 17 mm in the experiment on Vibrio cholerae [19]; 22 mm with Shigella flexneri [23]; 17 mm with Mucor [25]. The zone of inhibition at 500 ppm with Streptococcus [28] came out at 22 mm; with Nannizzia gypsea [32], 17 mm; with Pseudomonas [33], 30 mm; in the experiment on Staphylococcus aureus [39], 22 mm; in the experiment on Salmonella typhi [44], 17 mm; in the experiment with Aspergillus flavus [47], 17 mm. For the same compound, the zone of inhibition at 100 ppm with Aspergillus flavus [15] is 12 mm; in the experiment on Klebsiella pneumoniae [18] (read-out: IZ) it was 12 mm; in the experiment on Staphylococcus aureus [22] (read-out: IZ), 12 mm; in the experiment with Pseudomonas [37] (read-out: IZ), 17 mm; in the experiment on Streptococcus [45] (read-out: IZ), 12 mm. Besides, the “inhibition zone (IZ)” value in the experiment on Vibrio cholerae [26], with Rhizopus [27], in the experiment with Salmonella typhi [31], in the experiment with Escherichia coli [38], in the experiment on Shigella flexneri [41] and in the experiment on Mucor [42] was “inactive” throughout. For the same compound, the “inhibition zone (IZ)” value with Nannizzia gypsea [43] is “inactive”.

For the compound `O=C(/C=C/c1cccc([N+](=O)[O-])c1)c1ccc(N2CCOCC2)cc1`, the zone of inhibition at 200 ppm in the experiment on Aspergillus flavus [12] was found to be 17 mm; in the experiment on Nannizzia gypsea [16], 17 mm; in the experiment with Vibrio cholerae [20], 12 mm; in the experiment on Salmonella typhi [21], 12 mm; with Streptococcus [24], 17 mm; in the experiment with Escherichia coli [29], 17 mm. Besides, the zone of inhibition at 200 ppm with Pseudomonas [30] turned out to be 22 mm; with Shigella flexneri [34] it was 17 mm; with Rhizopus [35], 17 mm; with Staphylococcus aureus [36] it was 17 mm; with Klebsiella pneumoniae [40] it was 17 mm; with Mucor [46] it was 17 mm. For the same compound, the zone of inhibition at 500 ppm in the experiment with Escherichia coli [13] was determined as 22 mm; in the experiment with Klebsiella pneumoniae [14], 22 mm; with Rhizopus [17], 22 mm; in the experiment on Vibrio cholerae [19], 17 mm; in the experiment with Shigella flexneri [23] it was 22 mm; in the experiment with Mucor [25] it was 22 mm. Further, the zone of inhibition at 500 ppm with Streptococcus [28] amounted to 22 mm; with Nannizzia gypsea [32] it was 22 mm; with Pseudomonas [33], 30 mm; in the experiment with Staphylococcus aureus [39], 22 mm; in the experiment on Salmonella typhi [44], 17 mm; in the experiment with Aspergillus flavus [47], 22 mm. Further, the zone of inhibition at 100 ppm in the experiment on Aspergillus flavus [15], in the experiment on Shigella flexneri [41] (read-out: IZ) and with Nannizzia gypsea [43] (read-out: IZ) was 12 mm throughout. Besides, the “inhibition zone (IZ)” value in the experiment with Klebsiella pneumoniae [18], in the experiment with Staphylococcus aureus [22], in the experiment with Vibrio cholerae [26], in the experiment on Rhizopus [27], in the experiment on Salmonella typhi [31] and in the experiment with Pseudomonas [37] was “inactive” throughout. Moreover, the “inhibition zone (IZ)” value in the experiment with Escherichia coli [38], in the experiment with Mucor [42] and with Streptococcus [45] was “inactive” in each case.
